“Also recorded” adds a separate entry of the source. Starred links: 1 amine or outer side, 2 acyl side, 3 side chain; linkers in the order of their positions; H or OH if unused. Positions of bridges follow the written chain, without caps; N, C: chain ends. Non-standard residues stand in square brackets, D forms with d. Residues, ends and D or L forms follow the SMILES beside them. ξ: configuration not given here. dPhe(4-Cl) = N[C@H](Cc1ccc(Cl)cc1)C(=O)O; 2Nal = N[C@@H](Cc1ccc2ccccc2c1)C(=O)O; Suc = O=C(CCC(=O)[*:2])[*:1]; ξE = NC(CCC(=O)O)C(=O)O; ξDab = NCCC(N)C(=O)O; ξK = NCCCCC(N)C(=O)O; ξDap = NCC(N)C(=O)O; Ava = NCCCCC(=O)O; GABA = NCCCC(=O)O; βAla = NCCC(=O)O
What was measured:
hMC-3R [1] = biological target: T1, hMC-3R (Homo sapiens, UniProt P41968); test: Competitive binding assay, [125I]-NDP-α-MSH, CHO cell membranes; details: 200 pM [125I]-NDP-α-MSH, read-out: Binding Assay IC50 hMC-3R
T1 construct: expressed in transfected cells; host or cells: Chinese hamster ovary (CHO) cells
Protocol: (§1) The peptides of the present invention were evaluated for agonist activity in receptor binding assay. Crude membrane preparations were obtained from Chinese hamster ovary cells expressing human MC3, MC4, and MC5 receptors. Cells were rinsed with phosphate-buffered saline (PBS) lacking CaCl2 or MgCl2 (Life Technologies, Gaithersburg, Md., USA), and then detached with enzyme-free dissociation media (Specialty Media, Lavellette, N.J., USA). Cells were pelleted at 2800×g for 10 minutes and resuspended in membrane buffer (20 mM Tris, pH 7.2, 5 mM ethylenediaminetetraacetic acid) with 5 μg/ml leupeptin, 5 μg/ml aprotinin, 40 μg/ml bacitracin, and 25 μg/ml pefabloc (Boehringer Mannheim). The cells were […] with 10 strokes by using a motor-driven Teflon-coated pestle in a glass homogenizer at low speed. The resulting cell suspension was centrifuged at 4100×g, 4° C., for 20 minutes. The pellet was resuspended in fresh membrane buffer with protease inhibitors, aliquoted, snap-frozen in liquid nitrogen, and stored at −80° C. The resulting crude membranes were titrated to determine the optimal level necessary for performing binding studies.
(§2) Binding reactions (total volume=250 μl) contained MBB (50 mM Tris, pH 7.2, 2 mM CaCl2, 1 mM MgCl2), 0.1% bovine serum albumin, crude membranes prepared from cells expressing human MC3, MC4, or MC5 receptor, 200 pM of [125I]-NDP-α-MSH (Amersham, Arlington Heighs, Ill., USA), and increasing concentrations of unlabeled test compounds dissolved in dimethylsulfoxide (final concentration=2%). Reactions were incubated for 1 hour without shaking and then filtered through 96-well filter plates (Packard), presoaked in 1% polyethyleneimine. Filters were washed 3 times with TNE buffer (50 mM Tris, pH 7.4, 5 mM ethylene-diaminetetraacetic acid, 150 mM NaCl), dried and counted by using Microscint-20 in a Topcount scintillation counter (Packard). Nonspecific binding was determined in the presence of 2 μm of unlabeled NDP-α-MSH (Peninsula Laboratories). Active peptides were evaluated in three independent experiments.

hMC-4R [2] = biological target: T2, hMC-4R (Homo sapiens, UniProt P32245); test: as above; details: 200 pM [125I]-NDP-α-MSH, read-out: Binding Assay IC50 hMC-4R
T2 construct: expressed in transfected cells; host or cells: Chinese hamster ovary (CHO) cells
Protocol: as §1, §2

hMC-5R [3] = biological target: T3, hMC-5R (Homo sapiens, UniProt P33032); test: as above; details: 200 pM [125I]-NDP-α-MSH, read-out: Binding Assay IC50 hMC-5R
T3 construct: expressed in transfected cells; host or cells: Chinese hamster ovary (CHO) cells
Protocol: as §1, §2

hMC-3R [4] = biological target: T1, hMC-3R; test: cAMP assay in CHO cells expressing a human melanocortin receptor; assay type: cell-based; details: 45 minutes at room temperature
Protocol: (§3) Chinese hamster ovary cells expressing a human melanocortin receptor were rinsed with calcium- and magnesium-free PBS (Life Technologies), and detached from the tissue culture flasks by 5-minutes incubation with enzyme-free dissociation buffer (S-014-B, Specialty Media). Cells were collected by centrifugation and resuspended in Earle's balanced salt solution (Life Technologies) with addition of 10 mM 4-(2-hydroxyethyl)-1-piperazineethanesulfonic acid (Hepes) buffer, pH 7.5, 5 mM MgCl2, 1 mM glutamine, and 1 mg/ml bovine serum albumin to concentration of 1-5×10^6 cells/ml. Subsequently, cells were counted and the cell suspension was treated with the phosphodiesterase inhibitor 3-isobutyl-1-methylxanthine (to concentration of 0.6 mM).
(§4) A test compound was dissolved in dimethyl sulfoxide (DMSO, 10^−3 to 10^−8 M), diluted with buffer, and 0.1 volume of the solution was added to 0.9 volumes of the cell suspension (1 to 5×10^5 cells); final concentration of DMSO was 1%. After 45 minutes at room temperature, cells were lysed by incubation at 100° C. for 5 minutes to release accumulated cAMP. Accumulation of cAMP was measured in an aliquot of the cell lysate with the Amersham (Arlington Heights, Ill.) cAMP detection assay kit (RPA556). The amount of cAMP produced in response to a tested compound was compared to the amount of cAMP produced in response to α-MSH, defined as a 100% agonist. All active peptides were characterized in three independent experiments.

hMC-4R [5] = biological target: T2, hMC-4R; test: as above; assay type: cell-based; details: 45 minutes at room temperature
Protocol: as §3, §4

hMC-5R [6] = biological target: T3, hMC-5R; test: as above; assay type: cell-based; details: for EC50: CHO cells, 45 minutes at room temperature; for CAMP Assay hMC-5R, % activation at a single concentration: @ 5 (concentration unit not given), relative to α-MSH defined as a 100% agonist
Protocol: as §3, §4

[7] = rats, cited from earlier work; for Food intake: intraventricular administration / injection

T3 sequence (P33032 whole entry): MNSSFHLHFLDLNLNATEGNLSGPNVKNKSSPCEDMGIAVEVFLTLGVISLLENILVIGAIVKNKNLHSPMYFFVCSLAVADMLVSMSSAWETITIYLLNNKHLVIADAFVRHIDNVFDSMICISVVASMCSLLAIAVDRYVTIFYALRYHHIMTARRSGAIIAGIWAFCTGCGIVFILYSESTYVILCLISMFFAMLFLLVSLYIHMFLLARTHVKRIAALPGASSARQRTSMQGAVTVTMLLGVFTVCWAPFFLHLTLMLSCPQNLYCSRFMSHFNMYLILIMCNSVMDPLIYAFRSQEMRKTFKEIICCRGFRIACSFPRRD
T2 sequence (P32245 whole entry): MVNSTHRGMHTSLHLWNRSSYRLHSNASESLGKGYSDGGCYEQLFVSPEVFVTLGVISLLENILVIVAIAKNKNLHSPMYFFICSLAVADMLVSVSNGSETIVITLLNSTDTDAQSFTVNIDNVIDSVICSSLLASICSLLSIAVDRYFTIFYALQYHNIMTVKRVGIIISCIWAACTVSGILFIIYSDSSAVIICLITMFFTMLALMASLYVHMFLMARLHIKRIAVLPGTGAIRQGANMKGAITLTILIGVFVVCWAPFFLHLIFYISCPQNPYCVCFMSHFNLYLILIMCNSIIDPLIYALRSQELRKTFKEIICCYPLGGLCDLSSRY
T1 sequence (P41968 whole entry): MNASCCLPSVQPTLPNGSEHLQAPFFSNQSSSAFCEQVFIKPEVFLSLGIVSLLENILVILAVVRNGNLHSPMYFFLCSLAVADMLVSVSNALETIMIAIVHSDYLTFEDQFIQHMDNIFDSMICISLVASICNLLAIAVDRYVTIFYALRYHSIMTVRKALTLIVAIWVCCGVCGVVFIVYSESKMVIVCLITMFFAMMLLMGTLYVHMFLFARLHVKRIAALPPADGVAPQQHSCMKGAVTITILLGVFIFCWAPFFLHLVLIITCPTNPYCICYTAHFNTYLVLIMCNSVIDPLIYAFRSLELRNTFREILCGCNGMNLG

Compound	IC50 (hMC-3R [1])	IC50 (hMC-4R [2])	IC50 (hMC-5R [3])	EC50 (hMC-3R [4])	EC50 (hMC-4R [5])	EC50 (hMC-5R [6])	CAMP Assay hMC-5R, % activation at a single concentration (hMC-5R [6])	Food intake [7]	Body weight ([7]; intraventricular administration)
N=C(N)NCCC[C@@H]1NC(=O)[C@@H](Cc2ccccc2)NC(=O)[C@H](Cc2c[nH]cn2)NC(=O)CCC(=O)NCCC(C(N)=O)NC(=O)[C@H](Cc2c[nH]c3ccccc23)NC1=O (some centres unmarked) [Example 2] (H[dF]RW[ξDab]-NH2; linker N-5 via Suc)	1800 nM	35 nM	7.2 µM	240 nM	2.9 nM	2200 nM			
N=C(N)NCCC[C@@H]1NC(=O)[C@@H](Cc2ccccc2)NC(=O)[C@H](Cc2c[nH]cn2)NC(=O)CCC(=O)NCC(C(N)=O)NC(=O)[C@H](Cc2c[nH]c3ccccc23)NC1=O (some centres unmarked) [Example 3] (H[dF]RW[ξDap]-NH2; linker N-5 via Suc)	1600 nM	71 nM	3.6 µM	590 nM	33 nM		12% @ 5		
N=C(N)NCCC[C@@H]1NC(=O)[C@@H](Cc2ccc(Cl)cc2)NC(=O)[C@H](Cc2c[nH]cn2)NC(=O)CCC(=O)NCCCCC(C(N)=O)NC(=O)[C@H](Cc2c[nH]c3ccccc23)NC1=O (some centres unmarked) [Example 4] (H[dPhe(4-Cl)]RW[ξK]-NH2; linker N-5 via Suc)	17 nM	1.7 nM	0.092 µM	40 nM	0.74 nM	170 nM			
N=C(N)NCCC[C@@H]1NC(=O)[C@@H](Cc2ccccc2)NC(=O)[C@H](Cc2c[nH]cn2)NC(=O)CCC(=O)NCCCCC(C(N)=O)NC(=O)[C@H](Cc2ccc3ccccc3c2)NC1=O (some centres unmarked) [Example 5] (H[dF]R[2Nal][ξK]-NH2; linker N-5 via Suc)	440 nM	13 nM	> 20 µM	360 nM	3.7 nM	> 5000 nM			
N=C(N)NCCC[C@@H]1NC(=O)[C@@H](Cc2ccccc2)NC(=O)[C@H](Cc2c[nH]cn2)NC(=O)CNC(=O)CCC(C(N)=O)NC(=O)[C@H](Cc2c[nH]c3ccccc23)NC1=O (some centres unmarked) [Example 9] (GH[dF]RW[ξE]-NH2; lactam N-6)	> 1000 nM	290 nM	> 1 µM	2200 nM	35 nM		15% @ 5		
MTII								reduced food intake	
SHU9119								increased food intake; also recorded: stimulates food intake	increased food intake and body weight

Continued, in another order:

IC50 (hMC-3R [1])	IC50 (hMC-4R [2])	IC50 (hMC-5R [3])	EC50 (hMC-3R [4])	EC50 (hMC-4R [5])	EC50 (hMC-5R [6])	CAMP Assay hMC-5R, % activation at a single concentration (hMC-5R [6])	Compound	Food intake [7]	Body weight ([7]; intraventricular administration)
418 nM	25 nM	3.1 µM	110 nM	3.3 nM	1180 nM		N=C(N)NCCC[C@@H]1NC(=O)[C@@H](Cc2ccccc2)NC(=O)[C@H](Cc2c[nH]cn2)NC(=O)CCC(=O)NCCCCC(C(N)=O)NC(=O)[C@H](Cc2c[nH]c3ccccc23)NC1=O (some centres unmarked) [Example 1] (H[dF]RW[ξK]-NH2; linker N-5 via Suc)		
580 nM	12 nM	9 µM	190 nM	2.7 nM	1900 nM		N=C(N)NCCC[C@@H]1NC(=O)[C@@H](Cc2ccccc2)NC(=O)[C@H](Cc2c[nH]cn2)NC(=O)CCCCNC(=O)CCC(C(N)=O)NC(=O)[C@H](Cc2c[nH]c3ccccc23)NC1=O (some centres unmarked) [Example 6] ([Ava]H[dF]RW[ξE]-NH2; lactam N-6)		
1830 nM	41 nM	> 5 µM	310 nM	5.7 nM	> 5000 nM		N=C(N)NCCC[C@@H]1NC(=O)[C@@H](Cc2ccccc2)NC(=O)[C@H](Cc2c[nH]cn2)NC(=O)CCCNC(=O)CCC(C(N)=O)NC(=O)[C@H](Cc2c[nH]c3ccccc23)NC1=O (some centres unmarked) [Example 7] ([GABA]H[dF]RW[ξE]-NH2; lactam N-6)		
450 nM		5.05 µM					N=C(N)NCCC[C@@H]1NC(=O)[C@@H](Cc2ccccc2)NC(=O)[C@H](Cc2c[nH]cn2)NC(=O)CCNC(=O)CCC(C(N)=O)NC(=O)[C@H](Cc2c[nH]c3ccccc23)NC1=O (some centres unmarked) [Example 8] ([βAla]H[dF]RW[ξE]-NH2; lactam N-6)		
